Measured values taken from ChEMBL document CHEMBL1130787, “Synthesis and in vitro antimalarial activity of sulfone endoperoxides” (Bioorg Med Chem Lett, 1998).

system: Plasmodium falciparum; assay: In vitro antimalarial activity against chloroquine-sensitive Plasmodium falciparum NF 54; assay type: functional, organism-based

Row | SMILES | IC50 [nM]
1 | CC1(CSc2ccccc2)OOC2CC1CC[C@@]2(C)O.CC1(CSc2ccccc2)OOC2CC1CC[C@]2(C)O (some centres undefined) | > 2500
2 | CCOC(=O)C(=O)OC1(C)CCC2CC1OO[C@]2(C)CS(=O)(=O)c1ccccc1 (some centres undefined) | 140
3 | CC1(OC(=O)C(=O)N(Cc2ccccc2)Cc2ccccc2)CCC2CC1OO[C@@]2(C)CS(=O)(=O)c1ccccc1 (some centres undefined) | 21
4 | CC(=O)CC(=O)OC1(C)CCC2CC1OO[C@]2(C)CS(=O)(=O)c1ccccc1 (some centres undefined) | 73
5 | CC(=O)OC1(C)CCC2CC1OO[C@@]2(C)CS(=O)(=O)c1ccccc1 (some centres undefined) | 17
6 | CC1(O)CCC2CC1OO[C@]2(C)CS(=O)(=O)c1ccccc1 (some centres undefined) | 89
7 | COc1ccc(COC2(C)CCC3CC2OO[C@@]3(C)CS(=O)(=O)c2ccccc2)cc1 (some centres undefined) | 14
8 | CC1(OC(=O)C(=O)N(Cc2ccccc2)Cc2ccccc2)CCC2CC1OO[C@]2(C)CS(=O)(=O)c1ccccc1 (some centres undefined) | 81
9 | CC1(O)CCC2CC1OO[C@@]2(C)CS(=O)(=O)c1ccccc1 (some centres undefined) | 55
10 | CC(=O)OC1(C)CCC2CC1OO[C@]2(C)CS(=O)(=O)c1ccccc1 (some centres undefined) | 17
11 | CC(=O)CC(=O)OC1(C)CCC2CC1OO[C@@]2(C)CS(=O)(=O)c1ccccc1 (some centres undefined) | 46
12 | CCOC(=O)C(=O)OC1(C)CCC2CC1OO[C@@]2(C)CS(=O)(=O)c1ccccc1 (some centres undefined) | 170
13 | C[C@@H]1C(=O)C[C@H]2CC1OO[C@@]2(C)/C=C\c1ccc(C(F)(F)F)cc1C(F)(F)F (single isomer, unassigned) [ARTEFLENE] | 71
14 | C[C@@H]1CC[C@H]2[C@@H](C)C(=O)O[C@@H]3O[C@@]4(C)CC[C@@H]1[C@]32OO4 [ARTEMISININ] | 9.3
